Laboratory results taken from PubChem BioAssay (NCI).
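In this assay, cells in 96-well plates receive the compound at five concentrations for 48 hours. Endpoints are linearly interpolated between the surrounding concentrations. The concentration for full growth arrest is given as TGI.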

Experiments:
Assay in all cases: NCI-60 cell line screen, 48 h
[1] = system: NCI/ADR-RES ovarian
[2] = system: HS 578T breast
[3] = system: TK-10 renal
[4] = system: A549 NSCLC
[5] = system: MDA-N
[6] = system: OVCAR-8 ovarian
[7] = system: A498 renal
[8] = system: NCI-H226 lung
[9] = system: NCI-H460 lung
[10] = system: U251 CNS
[11] = system: IGROV1 ovarian
[12] = system: M14 melanoma

Measured: TGI

COc1ccc(CCN2CCN(CCCc3ccccc3)CC2)cc1
> 100 µM: all assays above

CCOC(=O)C(NC(=O)c1cccc(Cl)c1)(Nc1ccc(S(=O)(=O)Nc2cc(C)on2)cc1)C(F)(F)F (centres undefined)
> 100 µM: all assays above
